Reference: article PMC6365201 (Organic & biomolecular chemistry, 2019)

Biological target: FrbG (Streptomyces rubellomurinus, UniProt Q0ZQ42, H221A)
Experiment: NADPH oxidation at […] nm
Format: biochemical
Details: 500 μM substrate; 200 μM NADPH; 5 μM enzyme; 50 mM HEPES

Chain of FrbG (Q0ZQ42 whole entry H221A): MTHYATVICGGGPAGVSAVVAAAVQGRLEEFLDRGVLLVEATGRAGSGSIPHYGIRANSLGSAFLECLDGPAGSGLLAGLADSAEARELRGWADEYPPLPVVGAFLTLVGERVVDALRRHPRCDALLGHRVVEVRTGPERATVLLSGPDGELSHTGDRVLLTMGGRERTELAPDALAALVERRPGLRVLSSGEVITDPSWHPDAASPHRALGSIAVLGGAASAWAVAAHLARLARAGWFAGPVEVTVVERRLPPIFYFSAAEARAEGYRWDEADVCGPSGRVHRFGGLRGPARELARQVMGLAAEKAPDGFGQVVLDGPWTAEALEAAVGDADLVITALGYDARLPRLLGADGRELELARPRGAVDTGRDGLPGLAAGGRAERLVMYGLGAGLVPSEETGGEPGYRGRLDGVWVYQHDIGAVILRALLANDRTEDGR

NCCCP(=O)(O)OP(=O)(O)OC[C@H]1O[C@@H](n2ccc(N)nc2=O)[C@H](O)[C@@H]1O [compound 4, CMP-5’-3APn]
NADPH oxidation at 340 nm: FrbG-H221A had significantly higher rates for both NADPH oxidation and substrate hydroxylation
